This note sets out measurements from paper PMC6768323, “Adverse Maternal, Fetal, and Postnatal Effects of Hexafluoropropylene Oxide Dimer Acid (GenX) from Oral Gestational Exposure in Sprague-Dawley Rats” (Environmental Health Perspectives, 2019).

For the assay, the target named is T1, chimp AR (Pan troglodytes, UniProt O97775).
T1 construct: expressed in transfected cells; host or cells: CV-1 cells (ATCC CCL-70), adenoviral transduction
T1 sequence (O97775 1-911): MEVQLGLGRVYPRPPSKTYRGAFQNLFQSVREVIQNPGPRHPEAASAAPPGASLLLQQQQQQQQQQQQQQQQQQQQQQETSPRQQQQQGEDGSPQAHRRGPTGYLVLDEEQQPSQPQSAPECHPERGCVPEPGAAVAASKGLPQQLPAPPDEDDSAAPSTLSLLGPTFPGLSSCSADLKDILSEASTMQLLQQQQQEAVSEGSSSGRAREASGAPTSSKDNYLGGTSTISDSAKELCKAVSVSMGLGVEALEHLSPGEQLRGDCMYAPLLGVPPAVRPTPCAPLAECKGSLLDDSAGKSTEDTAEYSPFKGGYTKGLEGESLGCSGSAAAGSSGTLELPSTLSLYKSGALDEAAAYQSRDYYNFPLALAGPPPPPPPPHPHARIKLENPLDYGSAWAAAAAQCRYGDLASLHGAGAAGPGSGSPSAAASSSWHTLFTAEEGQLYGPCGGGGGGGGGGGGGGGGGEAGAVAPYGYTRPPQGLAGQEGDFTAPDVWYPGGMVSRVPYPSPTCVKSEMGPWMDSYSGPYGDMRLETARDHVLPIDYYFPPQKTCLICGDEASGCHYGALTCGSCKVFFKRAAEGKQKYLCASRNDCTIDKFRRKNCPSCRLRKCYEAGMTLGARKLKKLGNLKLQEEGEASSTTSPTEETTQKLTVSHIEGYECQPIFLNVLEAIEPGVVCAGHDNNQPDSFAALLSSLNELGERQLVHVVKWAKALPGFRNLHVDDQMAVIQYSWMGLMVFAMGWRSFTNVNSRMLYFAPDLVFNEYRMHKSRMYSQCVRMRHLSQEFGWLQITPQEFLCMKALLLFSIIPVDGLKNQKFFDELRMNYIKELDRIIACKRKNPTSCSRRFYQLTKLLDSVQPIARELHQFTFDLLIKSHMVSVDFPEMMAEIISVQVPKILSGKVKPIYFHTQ
Nature of the assay: AR transcriptional activation, CV-1 cells. It is filed as cell-based. The protocol: HFPO-DA was assessed for agonism and antagonism of transcriptional activation for estrogen (ER), androgen (AR), and glucocorticoid receptors (GR). Method details for in vitro transactivation assays for ER ([Wilson et al. 2004a]), AR ([Hartig et al. 2002], [2007]), and GR ([Conley et al. 2017]; [Medlock Kakaley et al. 2018]) have been previously reported. Briefly, for ER activity we utilized the stably transfected T47D-KBluc cell line [publicly available via American Type Culture Collection (ATCC); CRL-2865] according to protocols provided by ATCC with the modification of Dulbecco’s Modified Eagle Media (DMEM) as the cell culture media instead of Roswell Park Memorial Institute (RPMI) media. […] All assays were run in 96-well plates and luminescence was detected using a BMG Fluostar Omega luminometer (BMG Labtech) following 24-h exposure. […] Cellular cytotoxicity across the dosing range was determined for CV-1 cells utilizing the 3-(4,5-dimethylthiazol-2-yl)-2,5-diphenyltetrazolium bromide (MTT) dye ([Mosmann 1983]). HFPO-DA was analyzed using n=2–3 biological replicate assay plates (i.e., unique cell passages) with four technical replicates per treatment per plate. […]

On to `O=C(O)C(F)(OC(F)(F)C(F)(F)C(F)(F)F)C(F)(F)F` (centres unmarked) [HFPO-DA, Hexafluoropropylene oxide dimer acid], for which, under “100 pM to 100 μM”, the androgen receptor agonism result is “no androgen or glucocorticoid receptor agonism”. Moreover, the “androgen receptor antagonism, reduction in luciferase expression” value (100 μM, versus 100 pM DHT) was found to be 42±1%.
